Where a name gives a salt, the structure may show the parent alone.
tested on: Zymosan Stimulated Macrophages (arachidonic acid release); experiment: Test A: Inhibition of Arachidonic Acid Release from Zymosan Stimulated Macrophages; assay type: cell-based, mouse (female MF1 mice); details: Mus musculus, Macrophage, inhibition of arachidonic acid release, zymosan stimulated mouse peritoneal macrophages; tested at 100, 50, 20, 10, 5 and 1 μM; ≤100 μM considered active; read-out: Test A IC50
Protocol: Test A was carried out in the following way:
Inhibition of Arachidonic Acid Release from Zymosan Stimulated Macrophages
Female MF1 mice (weighing 20 to 25 g) were killed using a rising concentration of CO2. The mice were laid on their backs and the abdomens wiped with 70% alcohol. The skin was pulled back, exposing the peritoneal wall. Medium A (5 ml) (see below) was injected into the peritoneal cavity of each mouse followed by approximately 1 ml of air using a 20 ml syringe and a 21G×40 mm needle in order to form a suspension of macrophage cells. The medium and cells were then removed using a 19G×40 mm needle. The resulting suspension was returned to a sterile beaker kept on ice. The extracts from all the mice were pooled and this pooled cell suspension was counted using a Coulter counter and adjusted to a final cell count of 1-1.3×10^6 cells/ml prior to labelling with [^3 H]-arachidonic acid. Typically five mice provided sufficient cells for each multiwell plate.
Sufficient [^3 H]-arachidonic acid in ethanol to give a final concentration of 1.6 μCi/ml (equivalent to 40 μCi/plate) was blown to dryness under nitrogen. The arachidonic acid was then resuspended in 1 or 2 ml of the cell suspension which was then mixed with the remainder of the cell suspension in a centrifuge bottle. The labelled cell suspension was then plated out into sterile plastic 96 flat-bottomed well plates (250 μl per well) and incubated overnight at 37° C. in a moist atmosphere of 5% CO2, 95% air.
The following day, non-adherent cells were removed by washing 3 times with sterile phosphate buffered saline (PBS). The adherent peritoneal macrophages were then cultured for a further 24 hours in the presence or absence of drugs, in medium B (see below) at 37° in a 5% CO2 atmosphere in order to measure the effects of drugs on the spontaneous release of arachidonic acid in the absence of stimulus. After this incubation, supernatants were removed to give media 1 and stored in sealed multi-well plates at 4° C. prior to scintillation counting. Drugs which potentiated spontaneous release of arachidonic acid (125% of controls) were deemed to be toxic at the concentration at which this phenomenon occurred. The supernatants were replaced by fresh medium C containing fresh drug and a stimulus. Three drugs were tested at six concentrations (100, 50, 20, 10, 5 and 1 μM) in replicates of four on each plate. The other wells contained controls consisting of a positive control (e.g. dexamethasone), medium (B) only and medium C only.
Incubation was then continued for a further 5 hours, whereupon the supernatants were collected to give media 2 and the adherent cells washed with PBS. The cells were then lysed with 100 μl of 0.1% TRITON® X100 in a 0.1% solution of bovine serum albumin in 0.9% saline and mechanically disrupted to give cell lysates. These supernatants (media 2) and cell lysates (Cells) were also stored in sealed multi-well plates at 4° C. prior to scintillation counting. 200 μl aliquots of media, or 100 μl aliquots of cells were counted using 2 ml of OPTIPHASE "HIGH SAFE" (Trademark of LKB) as scintillant.
The percentage of arachidonic acid released was calculated using the mean values for each group of 4 wells in the following equation. [formula]
The value for the arachidonic acid release in the absence of stimulus (spontaneous, cpm of media 2) from cells which had been exposed to neither stimulus nor drug was subtracted from all equivalent values (cpm media 2, stimulated with or without drug) to give the net stimulated release. The percentage inhibition of arachidonic acid release caused by a drug may then be calculated using the following equation. [formula]
Compounds of formula I were tested at six concentrations (100, 50, 20, 10, 5 and 1 μM) and IC50 values calculated. Compounds with IC50 values≤100 μM are considered to be active. Advantageous compounds have an IC50 value<50 μM.
Medium A (for peritoneal lavage) […]

Row | Compound | IC50 [µM]
1 | CC(C)(COc1ccc(Cl)cc1)NCC(O)Cn1ccnc1 (stereo not drawn) [Example 52, 1-[2-(4-Chlorophenoxy)-1,1-dimethylethylamino]-3-(imidazol-1-yl)propan-2-ol] | 23
2 | CC(C)(COc1ccc(C2=NCCS2)cc1)NCCCn1ccnc1 [Example 109, N-[1,1-dimethyl-2-[4-(4,5-dihydrothiazol-2-yl)phenoxy]ethyl}-3-(imidazol-1-yl)propylamine dimaleate] | 33
3 | CC(C)(COC(=O)c1ccccc1)NCCCn1ccnc1 [Example 78, 2-[3-(imidazol-1-yl)propylamino]-2,2-dimethylethyl benzoate dihydrochloride] | 92
4 | CC(C)(CNCCCn1ccnc1)Sc1ccc(Cl)cc1 [Example 18, 2-(4-Chlorophenylthio)-3'-(imidazol-1-yl)-2-methyldipropylamine dihydrochloride] | 20
5 | c1ccc(CCCNCCCCCn2ccnc2)cc1 [Example 81, N-(3-phenylpropyl)-5-imidazol-1-ylpentylamine 0.75 hydrate] | 65
6 | COc1ccc(S(=O)(=O)NCCc2ccc(C(C)(C)NCCCn3ccnc3)cc2)cc1 [Example 42, N-[2-(4-{1-[3-(Imidazol-1-yl)propylamino]-1-methylethyl}phenyl)ethyl]-4-methoxybenzenesulphonamide] | 9
7 | CCCCCCS(=O)(=O)Cc1ccc(C(C)(C)NCCCn2ccnc2)cc1 [Example 25, N-(1-[4-(Hexylsulphonylmethyl)phenyl]-1-methylethyl)-3-(imidazol-1-yl)propylamine dihydrochloride] | 11
8 | CCCCS(=O)(=O)Oc1ccc(OCCNCCCn2ccnc2)cc1 [Example 67, 4-{2-[3-(imidazol-1-yl)propylamino]ethoxy}phenyl 1-butane sulphonate] | 20
9 | COc1ccccc1CCC(C)(C)NCCCn1ccnc1 [Example 36, 3'-(Imidazol-1-yl)-3-(2-methoxyphenyl)-1,1-dimethyldipropylamine] | 60
10 | Cc1cc(SCC(C)(C)NCCCn2ccnc2)c(C)cc1Cl [Example 20, N-[2-(4-Chloro-2,5-xylylthio)-1,1-dimethylethyl]-3-(imidazol-1-yl)propylamine dihydrochloride] | 4
11 | CCCOC(=O)c1ccc(C(C)(C)NCC(O)Cn2ccnc2)cc1 (stereo not drawn) [Example 74, propyl 4-{1-[2-hydroxy-3-(imidazol-1-yl)propylamino]-1-methylethyl}benzoate] | 82
12 | N#Cc1ccc(OCCNCCCn2ccnc2)cc1 [Example 31, 4-{2-[3-(Imidazol-1-yl)propylamino]ethoxy}benzonitrile sesquihydrochloride] | 74
13 | CC(C)(CS(=O)(=O)c1ccc(C(C)(C)C)cc1)NCCCn1ccnc1 [Example 70, N-[2-(4-t-butylphenylsulphonyl)-1,1-dimethylethyl]-3-(imidazol-1-yl)-propylamine dihydrochloride] | 84
14 | CCc1ccc(OCCNCCCn2ccnc2)cc1 [Example 5, N-[2-(4-Ethylphenoxy)ethyl]-3-(imidazol-1-yl)propylamine] | 17
15 | CC(C)(NCCCn1ccnc1)c1ccc(OS(=O)(=O)c2ccccc2)cc1 [Example 71, 4-{1-[3-(imidazol-1-yl)propylamino]-1-methylethyl}phenyl benzenesulphonate] | 23
16 | Cc1cc(S(=O)(=O)CC(C)(C)NCCCn2ccnc2)c(C)cc1Cl [Example 69, N-[2-(4-chloro-2,5-xylylsulphonyl)-1,1-dimethylethyl]-3-(imidazol-1-yl)propylamine dihydrochloride hemihydrate] | 50

Row | Compound | IC50 [µM]
17 | CC(C)(NCCCn1cnc(CCNS(=O)(=O)c2ccccc2)c1)c1ccc(Cl)cc1 [Example 54, N-[2-(1-{3-[1-(4-chlorophenyl)-1-methylethylamino]-propyl}imidazol-4-yl)ethyl]benzenesulphonamide] | 7
18 | CCCC(CCC)(NCCCn1ccnc1)c1ccc(CC(=O)NC)cc1 [Example 34, 4-{1-[3-(Imidazol-1-yl)propylamino]-1-propylbutyl)phenyl-N-methylacetamide] | 76
19 | Cc1ccc(OCCNCCCn2ccnc2)cc1C [Example 6, N-[2-(3,4-Dimethylphenoxy)ethyl]-3-(imidazol-1-yl)propylamine] | 20
20 | CC(C)(COc1ccccc1)NCC(O)Cn1ccnc1 (stereo not drawn) [Example 53, 3-(Imidazol-1-yl)-1-(2-phenoxy-1,1-dimethylethylamino) propan-2-ol] | 99
21 | CSc1ccc(OCC(C)(C)NCCCn2ccnc2)cc1 [Example 33, N-[1,1-Dimethyl-2-(4-methylthiophenoxy)ethyl]-3-(imidazol-1-yl)propylamine dihydrochloride hydrate] | 32
22 | CC1(C)COC(c2ccc(C(C)(C)NCC(O)Cn3ccnc3)cc2)=N1 (stereo not drawn) [Example 49, 1-{1-[4-(4,4-Dimethyl-2-oxazolin-2-yl)phenyl]-1-methylethylamino}-3-(imidazol-1-yl)propan-2-ol hemihydrate] | 70
23 | CC(C)(NCCCn1cnc(CCN)c1)c1ccc(Cl)cc1 [Example 22, 3-[4-(2-Aminoethyl)imidazol-1-yl]-N-[1-(4-chlorophenyl)-1-methylethyl]propylamine trihydrochloride] | 26
24 | Clc1ccc(SCCNCCCn2ccnc2)cc1 [Example 11, N-[2-(4-Chlorophenylthio)ethyl]-3-(imidazol-1-yl)propylamine] | 37
25 | CC(C)(NCCCn1ccnc1)c1ccc(CCNC(=O)c2ccccc2)cc1 [Example 57, N-[2-(4-{1-[3-(imidazol-1-yl)propylamino]-1-methylethyl}phenyl)-ethyl]benzamide] | 21
26 | OCCN(CCCn1ccnc1)CCOc1ccc(Cl)cc1 [Example 66, 2-{N-[2-(4-chlorophenoxy)ethyl]-N-[3-(imidazol-1-yl)propyl]amino}ethanol] | 24
27 | CC(C)(COC(=O)c1ccc(Cl)cc1)NCCCn1ccnc1 [Example 79, 2-[3-(imidazol-1-yl)propylamino]-2,2-dimethylethyl 4-chlorobenzoate dihydrochloride] | 20
28 | CC(C)(NCC(O)Cn1cnc(CCNC(=O)c2ccccc2)c1)c1ccc(Cl)cc1 (stereo not drawn) [Example 63, N-[2-(1-{3-[1-(4-chlorophenyl)-1-methylethylamino]-2-hydroxypropyl}imidazol-4-yl)ethyl]benzamide] | 14
29 | Cc1ccc(S(=O)(=O)Cc2ccc(C(C)(C)NCCCn3ccnc3)cc2)cc1C [Example 24, 3-(imidazol-1-yl)-N-{1-methyl-1-[4-(3,4-xylylsulphonylmethyl)phenyl]ethyl}propylamine dihydrochloride hydrate] | 22
30 | Clc1ccc(OCCCNCCCn2ccnc2)cc1 [Example 9, 3-(4-Chlorophenoxy)-3'-(imidazol-1-yl)dipropylamine] | 50
31 | CC(C)(NCCCc1c[nH]cn1)c1ccc(Cl)cc1 [Example 84, N-[1-(4-chlorophenyl)-1-methylethyl]-3-(imidazol-4(5)-yl)propylamine] | 15

same assay, conditions: Mus musculus, Macrophage, read-out: Test A IC50

Row | Compound | IC50 [µM]
32 | CC(C)(NCCCn1ccnc1)c1ccc(-c2ccc(O)cc2)cc1 [Example 59, 4'-{1-[3-(imidazol-1-yl)propylamino]-1-methylethyl}biphenyl-4-ol] | 8

same assay, conditions: inhibition of arachidonic acid release, zymosan stimulated mouse peritoneal macrophages; tested at 100, 50, 20, 10, 5 and 1 μM; ≤100 μM considered active; read-out: Test A IC50

Row | Compound | IC50 [µM]
33 | CC(C)(NCC(O)Cn1ccnc1)c1ccc(Cl)cc1 (single isomer, unassigned; (+)) [Example 45, (+)-1-[1-(4-Chlorophenyl)-1-methylethylamino]-3-(imidazol-1-yl)propan-2-ol] | 170
